Experimental data reported in patent publication US5045566A, “Novel imidate insecticides” (ICI Americas Inc., priority 1989, dated 1991).

Key:
Type in all cases: in vivo
[1] = test system: Housefly [Musca domestica]; assay: Housefly contact mortality in dishes (HF), 48 hours; settings: μg of test compound per 25 female flies
In short: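 Acetone solutions (with 0.01% peanut oil) dried onto dish bottoms, then 25 female flies, 1-2 days old, caged over the residue with sugar water. Mortality scored at 48 hours; LC50 from dosage-mortality curves, in μg per 25 female flies, top level 100 μg.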

[2] = test system: Cabbage Looper [Trichoplusia ni (Hubner)]; assay: Cabbage looper leaf dip (CL), 3-5 days; settings: percent in solution, second-instar larvae
In short: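 Compounds in 50-50 acetone-water were applied by dipping squash cotyledons (about 1×1.5 in) for 2-3 s; dried leaves went into petri dishes on moist filter paper with 5 second-instar larvae under high humidity. Mortality was scored after 3-5 days; LC50 from dosage-mortality curves, as percent compound in solution.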

[3] = test system: Maize weevil [Sitophilus zeamais (Motschulsky)]; assay: Maize weevil on dipped corn seeds (MW), 48 hours; settings: percent in solution, adult weevils
Description: The compounds in Tables 1 and 2 above were tested for insecticidal activity using the following testing procedures. LC50 values, based on the results of these tests and calculated according to dosage-mortality curves, are expressed in Table 3.
Maize weevil [Sitophilus zeamais (Motschulsky)]:
Test compounds were diluted in a 50:50 acetone:water solution. Four corn seeds [Zea mays (L.)] which had been immersed in test solutions for 2-3 seconds and allowed to dry were placed in containers together with 10 adult weevils. The containers were covered and kept at a temperature of about 25° C. Mortality was recorded after 48 hours. Test concentrations ranged from 0.01% down to that at which 50% mortality occurred. The LC50 values are expressed below in Table 3 under the heading "MW" in terms of percent of the test compound in solution.

[4] = test system: Black Bean Aphid [Aphis fabae (Scop.)]; assay: Black bean aphid spray test on nasturtium (BBA), 48 hours; settings: percent of test compound in sprayed solution
In short: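 LC50, given as percent test compound in the sprayed liquid, was calculated from dosage-mortality curves using concentrations from 0.05% downward. Sprays in 50:50 acetone-water went to runoff on ~5 cm nasturtiums carrying 25-50 aphids of mixed ages, one day after infestation. Deaths were counted 48 h later under greenhouse conditions.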

[5] = test system: Tobacco Budworm [Heliothis virescens (Fabricius)] eggs; assay: Tobacco budworm eggs (TBW-E); settings: percent in solution; 2-day old eggs
In short: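 Paper towel patches bearing 2-day old eggs were dipped in acetone solutions of compound, then set in petri dishes over larval rearing medium at 78° F. Mortality was scored once all control eggs had hatched and larvae were feeding. LC50, from dosage-mortality curves, is given as percent compound in solution.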

Row | SMILES | LC50 HF [1] | LC50 CL [2] | LC50 MW [3] | LC50 BBA [4] | LC50 TBW E (eggs) [5]
1 | Fc1ccc(Oc2cccc(COC(=Nc3ccc(F)c(Cl)c3)C3CC3)c2)cc1 [Compound 116] | 15 µg | 0.00025% | > 0.01% | – | –
2 | COc1ccc(Cl)cc1N=C(OCc1cccc(Oc2ccccc2)c1)C(C)C [Compound 264] | > 100 µg | 0.03% | – | > 0.05% | > 0.1%
3 | CC(C)C(=Nc1ccc(F)cc1)OCc1cccc(Oc2ccc(F)c(F)c2)c1 [Compound 265] | 10 µg | 0.00025% | – | > 0.05% | 0.07%
4 | CC(C)C(=Nc1cccc(SC(F)(F)F)c1)OCc1cccc(Oc2ccc(F)cc2)c1 [Compound 272] | > 100 µg | 0.0024% | – | > 0.05% | > 0.1%
5 | CC(C)C(=Nc1ccc2c(c1)OCO2)OCc1cc(Oc2ccc(F)cc2)ccc1Cl [Compound 274] | > 100 µg | 0.1% | – | > 0.05% | > 0.1%
6 | CC(C)C(=Nc1cc(F)c(Cl)cc1Cl)OCc1ccc(F)c(Oc2ccc(F)cc2)c1 [Compound 292] | 41 µg | 0.00075% | > 0.01% | – | 0.05%
7 | Fc1ccc(Oc2cccc(COC(=Nc3cccc(C(F)(F)F)c3)C3CC3)c2)cc1 [Compound 294] | > 100 µg | 0.017% | > 0.01% | – | > 0.1%
8 | CC(C)C(=Nc1ccc(F)c(Br)c1)OCc1ccc(F)c(Oc2ccccc2)c1 [Compound 299] | 8 µg | 0.0005% | > 0.01% | – | 0.017%
9 | CC(C)C(=Nc1ccc(C(C)(C)C)cc1)OCc1ccc(F)c(Oc2ccc(Cl)cc2)c1 [Compound 301] | > 100 µg | 0.008% | > 0.01% | – | > 0.1%
10 | CC(C)C(=Nc1cccc([N+](=O)[O-])c1)OCc1cccc(Oc2ccccc2)c1 [Compound 302] | 15 µg | 0.003% | > 0.01% | – | > 0.1%
11 | CC(C)C(=Nc1c(F)c(F)cc(F)c1F)OCc1cccc(Oc2ccc(F)cc2)c1 [Compound 304] | > 100 µg | 0.0024% | > 0.01% | – | > 0.1%
12 | CC(Br)C(=Nc1ccc2c(c1)OCO2)OCc1cccc(Oc2ccccc2)c1 (stereo not drawn) [Compound 306] | > 100 µg | 0.005% | > 0.01% | – | 0.1%
13 | CC(C)C(=Nc1ccc([N+](=O)[O-])c(C(F)(F)F)c1)OCc1cccc(Oc2ccccc2)c1 [Compound 307] | > 100 µg | 0.002% | > 0.01% | – | 0.08%
14 | CC(C)C(=Nc1ccc(F)c(Cl)c1)OCc1cc(F)cc(Oc2ccc(F)cc2)c1 [Compound 327] | > 100 µg | 0.005% | – | > 0.05% | > 0.1%
15 | CC(C)CC(=Nc1ccc(C(C)C)cc1)OCc1cccc(Oc2ccc(F)cc2)c1 [Compound 329] | 7 µg | 0.033% | – | > 0.05% | > 0.1%
16 | CC(C)C(=Nc1ccc(F)c(Cl)c1)OCc1cccc(Oc2ccc(I)cc2)c1 [Compound 447] | 33 µg | 0.0009% | – | > 0.05% | > 0.1%

Row | SMILES | LC50 HF [1] | LC50 CL [2] | LC50 MW [3] | LC50 BBA [4] | LC50 TBW E (eggs) [5]
17 | CC(C)C(=Nc1ccc(F)c(Cl)c1)OCc1ccc(Cl)c(Oc2ccc(F)cc2)c1 [Compound 448] | 16 µg | 0.003% | – | > 0.05% | 0.03%
18 | CC(C)C(=Nc1ccc(F)c(I)c1)OCc1cccc(Oc2ccc(F)cc2)c1 [Compound 449] | 13 µg | 0.0001% | 0.0075% | – | 0.025%
19 | Fc1c(F)c(F)c(COC(=Nc2cccc(Cl)c2Cl)C(Cl)Cl)c(F)c1F [Compound 454] | > 100 µg | 0.03% | – | > 0.05% | > 0.1%
20 | Cc1c(COC(=Nc2ccc(Cl)cc2)C(C)C)cccc1-c1ccccc1 [Compound 455] | > 100 µg | 0.0025% | – | 0.01% | > 0.1%
21 | Cc1c(COC(=Nc2ccc(F)cc2)C(C)C)cccc1-c1ccccc1 [Compound 458] | 100 µg | 0.007% | – | > 0.05% | > 0.05%
22 | CC(C)C(=Nc1ccc2c(c1)OC(C)(C)O2)OCc1cccc(Oc2ccc(Cl)cc2)n1 [Compound 468] | 50 µg | > 0.1% | – | 0.05% | > 0.1%
23 | CC(C)C(=Nc1cccc(C(F)(F)F)c1)OCc1cccc(Oc2ccncc2)c1 [Compound 469] | 40 µg | 0.02% | – | > 0.05% | > 0.1%
24 | CC(C)C(=Nc1ccc(F)c(Cl)c1)OCc1cccc(Oc2ccncc2)c1 [Compound 470] | 25 µg | 0.02% | – | > 0.05% | > 0.1%
25 | CC(C)C(=Nc1cccc(C(F)(F)F)c1)OCc1cccc(Oc2ccc(Cl)cc2)n1 [Compound 477] | 20 µg | 0.0003% | 0.0076% | – | > 0.1%
26 | CC(C)C(=Nc1ccc(Br)cc1)OCc1coc(Cc2ccccc2)c1 [Compound 478] | 15 µg | 0.0037% | > 0.01% | – | > 0.1%
27 | C=CCOc1cccc(COC(=Nc2cccc(C(F)(F)F)c2)C(C)C)c1 [Compound 480] | > 100 µg | 0.01% | – | > 0.05% | > 0.1%
28 | CC(C)C(=Nc1cccc(C(F)(F)F)c1)OCc1coc(Cc2ccccc2)c1 [Compound 482] | 36 µg | 0.01% | > 0.01% | – | > 0.1%
29 | CC(C)C(=Nc1ccc(F)c(Cl)c1)OC(C)c1cccc(Oc2ccccc2)n1 (stereo not drawn) [Compound 498] | 49 µg | 0.002% | – | > 0.05% | > 0.1%
30 | CC(C)C(=Nc1cccc(C(F)(F)F)c1)OC(C)c1cccc(Oc2ccccc2)n1 (stereo not drawn) [Compound 499] | 63 µg | 0.0024% | – | > 0.05% | > 0.1%
31 | COCc1c(F)c(F)c(COC(=Nc2ccc3c(c2)OCO3)C(C)C)c(F)c1F [Compound 501] | 20 µg | 0.00045% | – | > 0.05% | > 0.1%
